In patent US20260248165A1, “A SWEETENER OR SWEETNESS ENHANCER COMPOSITION” (Analyticon Discovery – Zweigniederlassung der BRAIN Biotech …, priority 2022, published 2026):

How the values were obtained:
[1] = J. Agric. Food Chem. 2017, 65, 2357-2363; cited from earlier work
[2] = Organoleptic test in combination with sucrose against sucrose (sucrose enhancement), 2-AFC; assay type: in vivo; design: key: 3: sweeter than the control solution; 2: sweetness comparable with the control solution; 1: less sweet than the control solution but still sweet; 0: no intrinsic sweetness; conditions: 12 to 15 panelists; for Sweet taste enhancement of sucrose, control solution Sucrose 6%: compound 50 ppm in 6% sucrose solution vs 6% sucrose; for Sweet taste enhancement of sucrose, control solution Sucrose 7%: compound 50 ppm in 6% sucrose solution vs 7% sucrose; for Sweet taste enhancement of sucrose, control solution Sucrose 8%: compound 50 ppm in 6% sucrose solution vs 8% sucrose; for Sweet taste enhancement of sucrose, control solution Sucrose 9%: compound 50 ppm in 6% sucrose solution vs 9% sucrose
Procedure: The isolated pure compounds were dissolved in non-carbonated mineral water (“Evian”) in a concentration of 50 ppm (0.05 mg/ml), 25 ppm (0.025 mg/ml), […] (0.0125 mg/ml) and […] (0.00625 mg/ml). The sweet taste of each sample was detected by a panel of 4 panelists to detect the sweetness perception level. The highest concentration below the sweetness perception level was used for the evaluation of the sweet taste enhancement of sucrose.
A solution of the isolated compound in a concentration below the sweetness perception level was dissolved in 6% sucrose solution. The sweet taste of this sample was compared to the sweet taste of a 6% sucrose solution by a panel of 12 to 15 panelists in a two-alternative forced-choice test (2-AFC. E2164-16_Standard Test Method for Directional Difference Test). The panelists were trained to differentiate between the sweetness of a 6%, 7%, 8%, and 9% sucrose solution. The sweetness of the solution of the enhancer in 6% sucrose was compared with sucrose solutions in concentrations of 6%, 7%, 8%, and 9%.

[3] = Organoleptic test in combination with Rebaudioside M against Rebaudioside M (Rebaudioside M enhancement), 2-AFC; assay type: in vivo; design: key: 3: sweeter than the control solution; 2: sweetness comparable with the control solution; 1: less sweet than the control solution but still sweet; 0: no intrinsic sweetness; conditions: 12 to 15 panelists; for Sweet taste enhancement, control solution Reb M 150 ppm: compound in 150 ppm Rebaudioside M solution vs Reb M 150 ppm; for Sweet taste enhancement, control solution Reb M 170 ppm: compound in 150 ppm Rebaudioside M solution vs Reb M 170 ppm; for Sweet taste enhancement, control solution Reb M 190 ppm: compound in 150 ppm Rebaudioside M solution vs Reb M 190 ppm; for Sweet taste enhancement, control solution Reb M 210 ppm: compound in 150 ppm Rebaudioside M solution vs Reb M 210 ppm
Procedure: The isolated pure compounds were dissolved in non-carbonated mineral water (“Evian”) in a concentration of 50 ppm (0.05 mg/ml), 25 ppm (0.025 mg/ml), […] (0.0125 mg/ml) and […]. The sweet taste of each sample was detected by a panel of 3-4 panelists to detect the sweetness perception level. The highest concentration below the sweetness perception level was used for the evaluation of the sweet taste enhancement of Rebaudioside M.
A solution of the isolated compound in a concentration below the sweetness perception level was dissolved in 150 ppm Rebaudioside M solution. […] E2164-16_Standard Test Method for Directional Difference Test). The panelists were trained to differentiate between the sweetness of a 150 ppm, 170 ppm, 190 ppm, and a 210 ppm Rebaudioside M solution.

[4] = Organoleptic test of the compounds against sucrose (intrinsic sweetness); assay type: in vivo; design: key: 3: sweeter than the control solution; 2: sweetness comparable with the control solution; 1: less sweet than the control solution but still sweet; 0: no intrinsic sweetness; conditions: 3-4 panelists; for Sweetness 50 ppm: compound 50 ppm in mineral water vs sucrose 20 g/l; for Sweetness 200 ppm: compound 200 ppm in mineral water vs sucrose 20 g/l
Procedure: The isolated pure compounds were dissolved in non-carbonated mineral water (“Evian”) in a concentration of 0.2 mg/ml (200 ppm) and 0.05 mg/ml (50 ppm). The sweet taste of each sample was compared by a panel of 3-4 panelists with a solution of sucrose in a concentration of 20 g/l.

[5] = Organoleptic comparison of Compound 1 with Millettiasaponin A; assay type: in vivo; conditions: both at 200 ppm and 50 ppm in mineral water; 4 panelists
Procedure: Milettiasaponin A was published as sweet taste principle of an extract prepared from Derris eriocarpa (150× sweeter than sucrose) [J. Agric. Food Chem. 2017, 65, 2357-2363]. Milletiasaponin A has an additional hydroxyl group at C-24 compared to compound 1. Both compounds were dissolved in non-carbonated mineral water (“Evian”) in a concentration of 0.2 mg/ml (200 ppm) and 0.05 mg/ml (50 ppm). The sweet taste of both samples was compared by a panel of 4 panelists.

[6] = 5% sucrose in water; concentration of 100 μm; cited from earlier work

Row | Compound | Sweetness relative to sucrose [1] [× sweeter than sucrose] | Sweet taste enhancement of sucrose, control solution Sucrose 6% [2] | Sweet taste enhancement of sucrose, control solution Sucrose 7% [2] | Sweet taste enhancement of sucrose, control solution Sucrose 8% [2] | Sweet taste enhancement of sucrose, control solution Sucrose 9% [2] | Sweet taste enhancement, control solution Reb M 150 ppm [3] | Sweet taste enhancement, control solution Reb M 170 ppm [3] | Sweet taste enhancement, control solution Reb M 190 ppm [3] | Sweet taste enhancement, control solution Reb M 210 ppm [3] | Sweetness 50 ppm [4] | Sweetness 200 ppm [4] | Sweet taste compared with Milletiasaponin A [5] | Enhancement of the sweetness of sucrose [6] [%]
1 | CC(=O)O[C@@H]1C[C@](C)(C(=O)O)C[C@H]2C3=CCC4[C@@]5(C)CC[C@H](O[C@@H]6O[C@H](C(=O)O)[C@@H](O)[C@H](O)[C@H]6O[C@@H]6O[C@H](CO)[C@H](O)[C@H](O)[C@H]6O[C@@H]6O[C@@H](C)[C@H](O)[C@@H](O)[C@H]6O)[C@](C)(CO)C5CC[C@@]4(C)[C@]3(C)CC[C@@]12C (stereo partly shown) [Milettiasaponin A] | 150 | – | – | – | – | – | – | – | – | – | – | – | –
2 | COc1cc([C@H]2c3cc(O)c(OC)cc3C[C@@H](CO[C@@H]3O[C@H](CO)[C@@H](O)[C@H](O)[C@H]3O)[C@@H]2CO)ccc1O [Compound 3, Isolariciresinol 9-glucoside] | – | 3 | 3 | 3 | 2 | 3 | 3 | 2 | 1 | 0 | 0 | – | –
3 | CC(=O)O[C@@H]1C[C@](C)(C(=O)O)C[C@H]2C3=CCC4[C@@]5(C)CC[C@H](O[C@@H]6O[C@H](C(=O)O)[C@@H](O)[C@H](O)[C@H]6O[C@@H]6O[C@H](CO)[C@H](O)[C@H](O)[C@H]6O[C@@H]6O[C@@H](C)[C@H](O)[C@@H](O)[C@H]6O)C(C)(C)C5CC[C@@]4(C)[C@]3(C)CC[C@@]12C (stereo partly shown) [Compound 1, 24-Desoxy- Millettiasaponin A] | – | 3 | 3 | 3 | 3 | 3 | 3 | 2 | 2 | 3 | 3 | sweeter with less aftertaste than Milletiasaponin A | –
4 | CCCCCc1cc2cc(O)cc(Oc3c(O)cc(O)cc3CCCCC)c2c(=O)o1 [Compound 4, Physodone] | – | 3 | 3 | 3 | 2 | 3 | 3 | 3 | 1 | 0 | 0 | – | –
5 | COc1ccc([C@@H]2CC(=O)c3c(O)cc(O)cc3O2)cc1O [hesperetin] | – | – | – | – | – | – | – | – | – | – | – | – | 41
6 | CC1=C(C(=O)O[C@@H]2O[C@H](CO[C@@H]3OC[C@@H](O)[C@H](O)[C@H]3O)[C@@H](O)[C@H](O)[C@H]2O)C(C)(C)CCC1 [Compound 2, Jasminoside M] | – | 3 | 3 | 3 | 2 | 3 | 3 | 2 | 1 | 0 | 0 | – | –
